Test results: US8372612B2, “Production of four carbon alcohols using improved strain” (Butamax(TM) Advanced Biofuels LLC, priority 2007, dated 2013)
Like-named read-outs stand apart in the source and are kept apart here.

Experiments:
[1] = system: mutant spoT DPD1848 line as compared to wild type EC100; assay type: cell-based, E. coli; conditions: for % improved spoT growth over wt: approximately 18 hours, spoT mutant percent growth minus wild type percent growth
Method: Kinetic growth studies were performed for the DPD1848 and the control (EC100) using the Bioscreen C Automated Microbial Growth Curve Analyis System (Oy Growth Curves Ab Ltd., Helsinki, Finland), which is an automated 96 well plate system, that monitors growth of many cultures simultaneously, each in a volume of 150 μl. Overnight triplicate cultures of each strain were grown and diluted (1:10) into either LB or LB freshly supplemented with 0.2%, 0.3%. 0.4% or 0.6% 1-butanol (w/v). The growth of each culture was followed for approximately 18 hours. The triplicates were averaged and plotted in FIG. 3 as the final 18 hour time point, normalized to EC100, and given as the percent growth inhibition relative to the no butanol control for each strain.
An additional kinetic growth study was performed as described above. The data is shown in FIG. 4 plotted as OD600 over time for the DPD1848 spoT mutant (A), and wild type (B, EC100).
A Bioscreen experiment, as described in Example 3, was used to compare growth of the mutant spoT DPD1848 line as compared to wild type EC100 in the following chemicals:
The growth of each culture was followed for approximately 18 hours. Triplicate samples were averaged, and expressed as the percent growth relative to the no chemical control for each strain. The data given in Table 8 is represented as percent growth improvement of the spoT mutant relative to wild type, which is the spoT mutant percent growth minus the wild type percent growth for each challenge.

[2] = system: relA::kan line (strain JW2755) and the parent BW25113; assay type: cell-based, E. coli K12
Method: A strain of E. coli K12 having a kanamycin marker insertion in the relA coding region (relA::kan) is available in the Keio knockout collection that is described in Example 4. Overnight cultures of the relA::kan line (strain JW2755) and the parent BW25113 were inoculated with fresh colonies and grown in LB at 37° C. with shaking. The next day the cultures were diluted 1:100 into 100 ml of fresh LB in a 1 liter flask and grown for approximately 2 hours. The culture was split into 20 ml aliquots in 125 ml plastic screw top flasks. One culture remained unaltered serving as the no add control, and various concentrations of either 2-butanol or isobutanol were added to the remaining flasks. Absorbance (OD600) was monitored over time. Using a 3 hr time point for growth in isobutanol and a 2.5 hr time point for growth in 2-butanol, fractional growth yields were determined and percent improvement was calculated by subtracting […] and multiplying by 100.

[3] = system: rpoZ::kan line JW3624 and wild type control BW25113; conditions: 0.4 and 0.6% 1-butanol; FIG. 8
Method: Cultures were grown in LB medium containing 0%, 0.4% or 0.6% 1-butanol in shake flasks. The experiments were performed by inoculating 100 ml of medium in a 250 ml plastic flask with 2 ml of an overnight culture grown from a single colony grown at 37° C. and incubating with shaking for approximately two doubling times (1 hour), to an OD600 between 0.2 and 0.3. Each culture was split into five 25 ml cultures in plastic screw top 125 ml flasks and the cultures were maintained at 37° C. in a shaking water bath at 200 rpm. The OD600 was monitored at 0, 30, 90, 120 190, and 260 minutes.
In the cultures above, a final time point was taken at 18 hr and used to calculate growth yield as a function of 1-butanol challenge. For each line grown in 0, 0.4% or 0.6% 1-butanol, the final 18 hour time point was divided by the no 1-butanol 18 hr time point.

[4] = system: DPD1850 (spoT), DPD1848 (spoT), DPD1865 (rpoZ) and the EC100 control; conditions: 0.5% (w/v) 1-butanol; LB, 37° C.; FIG. 2
Method: After a further 2 hr incubation at 37° C. with shaking, 200 μl samples were transferred to a microtiter plate and optical density at A600 recorded. The microtiter plate was moved to a platform shaker that was located within a plastic box that is in a 37° C. incubator.

E. coli strain EC100 = conditions: LB agar, closed chamber, 37° C., 1 day
Method: LB agar media supplemented with butanol was prepared fresh one day before innoculating at an appropriate volume and cooled for 2 hours in a 50° C. water bath. LB agar plates supplemented with butanol were prepared by dispensing 67 mls of melted agar, using a peristaltic pump and sterile Nalgene tubing, into sterile Omni trays with lids (Nunc mfg no. 242811). […] The plates were allowed to cool and set for approximately an hour before they were stored overnight in closed anaerobic chambers at room temperature in the chemical/biological hood. The next morning, the chambers harboring the plates were opened and allowed to air dry for approximately 1 hour before using.
Plates were incubated in a closed chamber at 37° C. for 1 day. The number of colonies arising and their sizes were scored. […] Butanol concentrations of 0.4% and 0.6% were chosen to screen for tolerance.

[5] = system: rpoZ insertion line (JW3624) and wild type BW25113; conditions: 0.4% 1-butanol; FIG. 5
Excerpt: The growth points of triplicate cultures were averaged and plotted in FIG. 5 as absorbance at OD600.

[6] = system: L. plantarum spoT mutant MS0280; experiment: Growth rate in Lacto Synthetic Medium with isobutanol, spoT mutant MS0280; assay type: cell-based, Lactobacillus plantarum; conditions: for Growth rate: MS0280, 30° C., LSM
Method: (§1) Strains MS0280 and MS0281, and Lactobacillus plantarum PN0512 (ATCC #PTA-7727), were tested for tolerance to isobutanol. The strains were streaked on semi-synthetic medium plates, pH 6 (medium composition: 10 mM ammonium sulfate, 5 mM potassium phosphate buffer, pH 6.0, 50 mM MES, pH 6.0, 2 mM MgCl2, 0.7 mM CaCl2, 50 μM MnCl2, 1 μM FeCl3, 1 μM ZnCl2, 1.72 μM CuCl2, 2.53 μM CoCl2, 2.42 μM Na2MoO4, 2 μM thiamine hydrochloride, 10 mM glucose, 0.01% casamino acids, 0.2% yeast extract and 1.5% agar), from frozen stock cultures. The plates that the two mutants (MS0280 and MS0281) were streaked onto also included chloramphenicol at 10 μg/ml. The plates were incubated overnight at 30° C. under anaerobic conditions. The next day, overnight cultures were started by inoculating Lacto Synthetic Medium (LSM; medium composition: 10 mM ammonium sulfate, 5 mM potassium phosphate buffer, pH 6.0, 50 mM MES, pH 6.0, 2 mM MgCl2, 0.7 mM CaCl2, 50 μM MnCl2, 1 μM FeCl3, 1 μM ZnCl2, 1.72 μM CuCl2, 2.53 μM CoCl2, 2.42 μM Na2MoO4, 2 μM thiamine hydrochloride, 10 mM glucose, 0.01% casamino acids and 0.2% yeast extract) with a diluted (1:6) culture with an initial OD600 of 0.02. These overnight cultures were allowed to incubate at 30° C. in a gently shaking water bath. The next morning, the overnight cultures were diluted to have an initial OD600 of 0.1, in a volume of 220 ml of LSM. These starter cultures were allowed to incubate at 30° C. in a gently shaking water bath for 1.25 hours, to ensure the cultures were not in a lag phase. At this time, 20 ml aliquots were dispensed to duplicate flasks containing different volumes of isobutanol, to give final concentrations of 0, 0.5, 1, 1.5 and 2%. The growth of each flask was followed by taking OD600 readings every hour. The natural log of the OD600 values were plotted on a linear scale vs time.

[7] = system: L. plantarum spoT mutant MS0281; experiment: Growth rate in Lacto Synthetic Medium with isobutanol, spoT mutant MS0281; assay type: cell-based, Lactobacillus plantarum; conditions: for Growth rate: MS0281, 30° C., LSM
Method: as §1

[8] = system: Lactobacillus plantarum PN0512; experiment: Growth rate in Lacto Synthetic Medium with isobutanol, parental control; assay type: cell-based; conditions: for Growth rate: PN0512, 30° C., LSM
Method: as §1

Compound: CCC(C)O (stereo not drawn) [2-butanol]
- % improved spoT growth over wt ([1]; chemical at 0.80% (w/v)): about 7%
- % improved spoT growth over wt ([1]; chemical at 0.80% (w/v), listed as 2-BuOH): 7.2%
- % improved spoT growth over wt ([1]; chemical at 1.20% (w/v)): 0%
- % improved spoT growth over wt ([1]; chemical at 1.40% (w/v)): 0%
- % improved spoT growth over wt ([1]; chemical at 1.60% (w/v)): 0%
- Percent improvement of fractional growth yield of relA mutant relative to the parent ([2]; 0.6% 2-butanol, 2.5 hr time point, FIG. 10B): small improvement
- Percent improvement of fractional growth yield of relA mutant relative to the parent ([2]; 0.8% 2-butanol, 2.5 hr time point, FIG. 10B): small improvement

Compound: CCCCO [1-butanol]
- Growth yield of rpoZ mutant versus wild type (18 hr time point divided by no 1-butanol 18 hr time point) [3]: higher growth yields than wild type
- Growth of spoT and rpoZ lines relative to EC100 (difference between 4 and 2 hr time points) [4]: improved growth
- Concentration at which only pinpoint colonies were seen (E. coli strain EC100): 0.6%
- Concentration from which colonies were progressively smaller (E. coli strain EC100): ≥ 0.2%
- Concentrations at which no colony formation was observed after overnight incubation (E. coli strain EC100): ≥ 0.7 % (w/v)
- Tolerance of spoT mutant versus wild type strain in terms of growth rate ([1]; all concentrations of 1-butanol tested (0.2%, 0.3%, 0.4%, 0.6% w/v), FIG. 4): more tolerant
- % improved spoT growth over wt ([1]; chemical at 0.2% (w/v)): 11.4%
- % improved spoT growth over wt ([1]; chemical at 0.3% (w/v)): 13.8%
- % improved spoT growth over wt ([1]; chemical at 0.4% (w/v)): about 16.5%
- % improved spoT growth over wt ([1]; chemical at 0.4% (w/v), listed as 1-BuOH): 16.5%
- % improved spoT growth over wt ([1]; chemical at 0.6% (w/v)): 9.7%
- Butanol tolerant phenotype of rpoZ insertion line (OD600 growth) [5]: butanol tolerant phenotype was seen

Compound: CC(C)CO [isobutanol]
- Growth rate ([6]; isobutanol concentration 0.5%): 0.464 μ/hour
- Growth rate ([6]; isobutanol concentration 1%): 0.426 μ/hour
- Growth rate ([6]; isobutanol concentration 1.5%): 0.382 μ/hour
- Growth rate ([6]; isobutanol concentration 2%): 0.359 μ/hour
- Growth rate inhibition ([6]; the mutants (MS0280), 0.5% isobutanol, growth rates in presence and absence of isobutanol compared): 5%
- % improved spoT growth over wt ([1]; chemical at 0.80% (w/v)): about 13.5%
- % improved spoT growth over wt ([1]; chemical at 0.80% (w/v), listed as IsoBuOH): 13.5%
- % improved spoT growth over wt ([1]; chemical at 1.20% (w/v)): 12.1%
- % improved spoT growth over wt ([1]; chemical at 1.40% (w/v)): 11.4%
- % improved spoT growth over wt ([1]; chemical at 1.60% (w/v)): 10.7%
- Growth rate ([7]; isobutanol concentration 0.5%): 0.467 μ/hour
- Growth rate ([7]; isobutanol concentration 1%): 0.426 μ/hour
- Growth rate ([7]; isobutanol concentration 1.5%): 0.397 μ/hour
- Growth rate ([7]; isobutanol concentration 2%): 0.359 μ/hour
- Growth rate inhibition ([7]; the mutants (MS0281), 0.5% isobutanol, growth rates in presence and absence of isobutanol compared): 5%
- Growth rate ([8]; isobutanol concentration 0.5%): 0.424 μ/hour
- Growth rate ([8]; isobutanol concentration 1%): 0.385 μ/hour
- Growth rate ([8]; isobutanol concentration 1.5%): 0.364 μ/hour
- Growth rate ([8]; isobutanol concentration 2%): 0.349 μ/hour
- Growth rate inhibition ([8]; the parent (PN0512), 0.5% isobutanol, growth rates in presence and absence of isobutanol compared): 9%
- Percent improvement of fractional growth yield of relA mutant relative to the parent ([2]; 0.8% isobutanol, 3 hr time point, FIG. 10A): small improvement

Compound: CCC(C)=O [2-butanone]
- % improved spoT growth over wt ([1]; chemical at 3% (w/v)): about 3%

Compound: CCC(C)=O [MEK, methyl ethyl ketone]
- % improved spoT growth over wt ([1]; chemical at 2.50% (w/v)): 0%
- % improved spoT growth over wt ([1]; chemical at 3% (w/v)): 3.1%
- % improved spoT growth over wt ([1]; chemical at 3.50% (w/v)): 4.3%
- % improved spoT growth over wt ([1]; chemical at 4% (w/v)): 33.5%
